Measurements published in patent US8759318B2, “Phosphoramidate derivatives of guanosine nucleoside compounds for treatment of viral infections” (Inhibitex, Inc., priority 2009, dated 2014).
pEC50: −log10 of the molar value. Like-named read-outs stand apart in the source and are kept apart here.

How the values were obtained:
[1] = system: Yellow Fever Virus strain 17D; assay: microbe, parasite or virus in culture; format: cell-based; conditions: HeLa
[2] = system: Bovine Viral Diarrhea Virus (BVDV) strain NADL; assay: Cytoprotection assay, BVDV; format: cell-based; conditions: Bovine viral diarrhea virus isolates and strains, MDBK
[3] = system: Coxsackie virus strain B4; assay: Cytoprotection assay, Coxsackie virus; format: cell-based; conditions: Enterovirus B, B4, Vero
HSV-1 strain HF = assay: Cytoprotection assay, HSV-1; format: cell-based; conditions: Human alphaherpesvirus 1, Vero
Adenovirus Type 1 = assay: Cytoprotection assay, Adenovirus; format: cell-based; conditions: Adenovirus Type I, HeLa
[4] = Cytotoxicity evaluation of the HCMV plaque reduction assay; format: cell-based; conditions: human, MRC-5 cells; MRC-5, HCMV AD169 assay
Protocol: MRC-5 cells ((ATCC CCL-171) embryonal lung fibroblast, diploid, human) were used in plaque reduction assays with HCMV Strain AD169 (ATCC VR-538) and in cytoprotection assays with Rhinovirus strain 1B. They were grown in EMEM supplemented with 10% FBS, 0.1 mM non-essential amino acids, 1.0 mM sodium pyruvate, 2.0 mM L-Glutamine, 100 units/ml Penicillin and 100 μg/ml Streptomycin.
HCMV Plaque Reduction Assay: MRC-5 cells were seeded at 75,000 cells/well in 24 well plates. The plates were incubated overnight at 37° C. and 5% CO2. The following day, media was aspirated and approximately 100 plaque forming units (pfu) of HCMV AD169 was added to 21 wells of each plate in a volume of 200 μL of assay medium (MRC-5 growth medium containing 2% FBS rather than 10% FBS). The remaining three wells of each plate served as cellular control wells and received 200 μL of assay medium without virus. […] After a six day incubation period, cell viability was determined using CellTiter 96 Aqueous One Solution (Promega Corporation). […] Adhesive plate sealers were used in place of the lids, the sealed plates were inverted several times to mix the soluble formazan product and the plate was read spectrophotometrically at 490 and 650 nm with a Molecular Devices Vmax plate reader. […] A therapeutic (selectivity) index (TI) for each active compound was determined by dividing the TC50 by the IC50.

[5] = Protide stability in normal plasma, rat; format: in vitro ADME; conditions: 37° C.
Protocol: Selected nucleoside 5′-phosphoramidates were examined for stability in human, cynomolgous monkey, rat and mouse plasma at 37° C. at both 30 min and 90 min time points.
Protide Stability in Normal Plasma: Plasma samples were prepared for analysis as follows. 50 μl of each test sample were distributed a 96-well V-bottom plate. 200 μl of acetonitrile containing 10 ng/ml of an internal standard was added to each plasma sample. The precipitated samples were centrifuged at 2500 rpm, 4° C. for 20 minutes in a Sorvall RT6000S centrifuge (Thermo Scientific, Waltham Mass.) and 100 μl of supernatant from each sample was transferred into a 96 deep well plate followed by the addition of 100 μl H2O to each sample. Samples were covered, mixed well by vortexing and maintained at 2-8° C. before and during analysis. 15 μl of each test sample was analyzed for protide concentrations by liquid chromatography coupled to tandem mass spectrometry (LC-MS/MS). Liquid chromatography was performed with an Agilent 1100 Series HPLC system equipped with a Synergi 4 μm Polar-RP, 30×2.0 mm column (Phenomenex, Torrance, Calif.). The HPLC system was coupled to an API 4000 triple quadrupole mass spectrometer (Applied Biosystems, Framingham, Mass.). Mass spectrometry was performed in positive ion mode and data was analyzed using Analyst® v1.4.2 software (Applied Biosystems, Framingham, Mass.). Data was presented as the percentage of compound recovered as compared to the 0 time point control.

[6] = system: HCV replicon (Genotype 1b); assay: Luciferase genotype 1b replicon potency assay; conditions: Hepatitis C virus, GETYPE1B, read-out: IC50 μM, HCV genotype 1b luciferase replicon, Renilla luciferase reporter
[7] = Compound cytotoxicity in cytoprotection assay (MTS), MRC-5; conditions: human, MRC-5 cells
[8] = Mouse PK: 2'-C-methylguanosine triphosphate levels in liver; conditions: 2'-C-methylguanosine triphosphate in mouse liver, 50 mg/kg PO

With COc1nc(N)nc2c1ncn2C1O[C@H](COP(=O)(N[C@@H](C)C(=O)OCC(C)(C)C)Oc2cccc3ccccc23)[C@@H](O)[C@@]1(C)O (stereo partly drawn) [Example 20] as the compound, how does the pEC50 [1] read?
Its pEC50 is 6.38.

And the pEC50 [2]?
The pEC50 was 6.13.

What about the pEC50 [3] of the same compound?
Its pEC50 is under 5.00.

What about the pEC50 (HSV-1 strain HF) of the same compound?
The pEC50 was under 5.00.

What about the pEC50 (Adenovirus Type 1) of the same compound?
The pEC50 was under 5.00.

And the CC50 at 6 days [4]?
The CC50 at 6 days was 1570 nM.

And the “% Compound Remaining Compared to %100 Acetonitrile Control” value ([5]; 30 min)?
Its value is 0%.

And the “% Compound Remaining Compared to %100 Acetonitrile Control” value ([5]; 1.5 h)?
The value was 0%.

And the CC50 (Vero cells; African green monkey)?
Its CC50 is over 10000 nM.

What about the CC50 (Vero cells; Vero, HSV-1 assay) of the same compound?
Its CC50 is over 10000 nM.

What about the CC50 (Vero cells; Vero, RSV assay) of the same compound?
The CC50 was over 10000 nM.

What about the IC50 [6] of the same compound?
Its IC50 is 0.001 µM.

What about the CC50 at 7 days [7] of the same compound?
The CC50 at 7 days was 3080 nM.

And the AUC0-6 [8]?
Its AUC0-6 is 31940 ng·h/g.

And the AUC0-24 [8]?
The AUC0-24 was 59353 ng·h/g.
